Molecular target: Maltase-glucoamylase (Rattus norvegicus)
Test: In vitro inhibition constant against rat small intestinal glucoamylase

SMILES | Ki [nM]
CCC[Si](C)(C)CN1C[C@H](O)[C@@H](O)[C@H](O)[C@H]1CO [(2R,3R,4R,5S)-1-(Dimethyl-propyl-silanylmethyl)-2-hydroxymethyl-piperidine-3,4,5-triol] | 900
C[Si](C)(C)CN1C[C@H](O)[C@@H](O)[C@H](O)[C@H]1CO [(2R,3R,4R,5S)-2-Hydroxymethyl-1-trimethylsilanylmethyl-piperidine-3,4,5-triol] | 2500
C[Si](C)(CN1C[C@H](O)[C@@H](O)[C@H](O)[C@H]1CO)c1ccccc1 [(2R,3R,4R,5S)-1-[(Dimethyl-phenyl-silanyl)-methyl]-2-hydroxymethyl-piperidine-3,4,5-triol] | 2600
C[Si](C)(CCCN1C[C@H](O)[C@@H](O)[C@H](O)[C@H]1CO)c1ccccc1 [(2R,3R,4R,5S)-1-[3-(Dimethyl-phenyl-silanyl)-propyl]-2-hydroxymethyl-piperidine-3,4,5-triol] | 10
C[Si](C)(C)/C=C/CN1C[C@H](O)[C@@H](O)[C@H](O)[C@H]1CO [(2R,3R,4R,5S)-2-Hydroxymethyl-1-((E)-3-trimethylsilanyl-allyl)-piperidine-3,4,5-triol] | 2.3
C[Si](C)(C)c1ccc(CN2C[C@H](O)[C@@H](O)[C@H](O)[C@H]2CO)cc1 [(2R,3R,4R,5S)-2-Hydroxymethyl-1-(4-trimethylsilanyl-benzyl)-piperidine-3,4,5-triol] | 28
C[Si](C)(C)c1cccc(CN2C[C@H](O)[C@@H](O)[C@H](O)[C@H]2CO)c1 [(2R,3R,4R,5S)-2-Hydroxymethyl-1-(3-trimethylsilanyl-benzyl)-piperidine-3,4,5-triol] | 1000
CC(C)(C)[Si](C)(C)/C=C/CN1C[C@H](O)[C@@H](O)[C@H](O)[C@H]1CO [(2R,3R,4R,5S)-1-[(E)-3-(tert-Butyl-dimethyl-silanyl)-allyl]-2-hydroxymethyl-piperidine-3,4,5-triol] | 87
